Laboratory results: patent publication US4387086A, “Organic compounds” (Sandoz Ltd., priority 1979, dated 1983)

Test system: antiserum of Example 4
Test: Cross-reactivity of the antiserum: inhibition by 50% of the reaction between antibody (antiserum) and tracer antigen (tritiated thioridazine)
Assay type: binding, sheep
Conditions: relative to thioridazine; tracer tritiated thioridazine
From the text: The selectivity of the method can be determined as follows.
The main metabolites of thioridazine having a structure closely related to the parent compound are thioridazine-derivatives oxidized in the 2-methylthio side chain, more specifically the sulfoxide (A) and the sulfone (B), and also demethyl-thioridazine (C). The cross-reactivity of the antiserum was examined by employing a mixture of thioridazine, its sulfoxide A and sulfone B and its demethyl-thioridazine C in the amount required to inhibit the reaction between antibody (antiserum) and tracer antigen (tritiated thioridazine) by 50%.

CN1CCCCC1CCN1c2ccccc2Sc2ccc([S+](C)[O-])cc21 (stereo not drawn) [A]
inhibitory concentration where 50% binding to the antiserum of Example 4 occurs, times higher than that of the parent compound: 67 times

CN1CCCCC1CCN1c2ccccc2Sc2ccc(S(C)(=O)=O)cc21 (stereo not drawn) [B]
inhibitory concentration where 50% binding to the antiserum of Example 4 occurs, times higher than that of the parent compound: 93 times

CSc1ccc2c(c1)N(CCC1CCCCN1)c1ccccc1S2 (stereo not drawn) [C, demethyl-thioridazine]
inhibitory concentration where 50% binding to the antiserum of Example 4 occurs, times higher than that of the parent compound: 111 times
